Our source for the Ki values is ChEMBL document CHEMBL3596180, “Evaluation of histone deacetylase inhibitors (HDACi) as therapeutic leads for human African trypanosomiasis (HAT)” (Bioorg Med Chem, 2015).

One assay has as its target Histone deacetylase 1 (Homo sapiens, UniProt Q13547). Nature of the assay: Inhibition of human HDAC1.
The next assay concerns the target Histone deacetylase 3 (Homo sapiens, UniProt O15379). Nature of the assay: Inhibition of human HDAC3.
The next assay concerns the target Histone deacetylase 4 (Homo sapiens, UniProt P56524). Nature of the assay: Inhibition of human HDAC4.
Assay [1] has as its target T1, Protein deacetylase HDAC6 (Homo sapiens, UniProt Q9UBN7).
T1 sequence (Q9UBN7 whole entry): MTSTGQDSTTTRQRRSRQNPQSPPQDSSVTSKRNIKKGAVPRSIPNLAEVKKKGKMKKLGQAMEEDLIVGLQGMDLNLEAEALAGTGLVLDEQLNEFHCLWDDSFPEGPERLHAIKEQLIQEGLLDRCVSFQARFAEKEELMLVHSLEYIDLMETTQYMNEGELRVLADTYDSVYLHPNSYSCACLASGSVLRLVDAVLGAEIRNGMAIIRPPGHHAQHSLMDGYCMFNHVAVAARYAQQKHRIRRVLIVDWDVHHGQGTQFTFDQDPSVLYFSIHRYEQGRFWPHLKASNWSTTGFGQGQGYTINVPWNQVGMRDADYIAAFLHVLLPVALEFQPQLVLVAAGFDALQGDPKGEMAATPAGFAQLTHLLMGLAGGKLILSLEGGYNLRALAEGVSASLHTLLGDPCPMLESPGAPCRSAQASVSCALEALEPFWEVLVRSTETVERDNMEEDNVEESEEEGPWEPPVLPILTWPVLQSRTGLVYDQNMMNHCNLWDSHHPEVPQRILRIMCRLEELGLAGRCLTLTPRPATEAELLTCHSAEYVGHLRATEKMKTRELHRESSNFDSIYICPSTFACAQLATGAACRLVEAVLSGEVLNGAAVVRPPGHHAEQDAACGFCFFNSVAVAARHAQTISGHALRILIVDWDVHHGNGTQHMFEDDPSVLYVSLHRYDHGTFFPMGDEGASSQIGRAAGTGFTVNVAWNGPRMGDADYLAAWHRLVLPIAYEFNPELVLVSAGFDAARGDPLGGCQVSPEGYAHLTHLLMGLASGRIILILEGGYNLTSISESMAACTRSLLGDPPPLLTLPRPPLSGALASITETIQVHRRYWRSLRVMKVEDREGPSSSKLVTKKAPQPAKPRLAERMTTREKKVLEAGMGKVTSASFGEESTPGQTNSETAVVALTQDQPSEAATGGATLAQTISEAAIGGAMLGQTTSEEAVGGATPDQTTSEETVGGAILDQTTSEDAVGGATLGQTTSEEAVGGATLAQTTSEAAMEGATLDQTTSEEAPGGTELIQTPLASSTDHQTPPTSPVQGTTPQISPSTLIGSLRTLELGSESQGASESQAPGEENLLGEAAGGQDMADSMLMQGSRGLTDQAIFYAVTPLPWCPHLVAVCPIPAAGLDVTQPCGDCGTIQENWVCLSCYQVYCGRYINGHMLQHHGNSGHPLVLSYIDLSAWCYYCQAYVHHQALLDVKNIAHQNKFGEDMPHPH
Put plainly: Inhibition of human HDAC6.

Molecules are shown by their SMILES. pKi: −log10 of the molar value.

Histone deacetylase 1, sequence (Q13547 whole entry): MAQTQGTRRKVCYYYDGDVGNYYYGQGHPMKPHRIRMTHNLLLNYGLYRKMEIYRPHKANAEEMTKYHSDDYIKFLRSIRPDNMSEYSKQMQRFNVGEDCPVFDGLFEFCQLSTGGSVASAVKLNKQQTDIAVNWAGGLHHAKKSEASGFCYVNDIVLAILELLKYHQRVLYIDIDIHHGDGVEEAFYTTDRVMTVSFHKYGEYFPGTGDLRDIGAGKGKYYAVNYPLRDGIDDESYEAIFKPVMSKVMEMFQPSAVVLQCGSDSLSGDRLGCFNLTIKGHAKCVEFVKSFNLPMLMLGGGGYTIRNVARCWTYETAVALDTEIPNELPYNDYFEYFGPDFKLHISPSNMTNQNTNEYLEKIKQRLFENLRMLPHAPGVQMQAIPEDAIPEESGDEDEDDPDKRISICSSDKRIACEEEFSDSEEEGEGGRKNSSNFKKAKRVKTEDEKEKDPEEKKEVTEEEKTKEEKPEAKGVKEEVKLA
Histone deacetylase 4, sequence (P56524 whole entry): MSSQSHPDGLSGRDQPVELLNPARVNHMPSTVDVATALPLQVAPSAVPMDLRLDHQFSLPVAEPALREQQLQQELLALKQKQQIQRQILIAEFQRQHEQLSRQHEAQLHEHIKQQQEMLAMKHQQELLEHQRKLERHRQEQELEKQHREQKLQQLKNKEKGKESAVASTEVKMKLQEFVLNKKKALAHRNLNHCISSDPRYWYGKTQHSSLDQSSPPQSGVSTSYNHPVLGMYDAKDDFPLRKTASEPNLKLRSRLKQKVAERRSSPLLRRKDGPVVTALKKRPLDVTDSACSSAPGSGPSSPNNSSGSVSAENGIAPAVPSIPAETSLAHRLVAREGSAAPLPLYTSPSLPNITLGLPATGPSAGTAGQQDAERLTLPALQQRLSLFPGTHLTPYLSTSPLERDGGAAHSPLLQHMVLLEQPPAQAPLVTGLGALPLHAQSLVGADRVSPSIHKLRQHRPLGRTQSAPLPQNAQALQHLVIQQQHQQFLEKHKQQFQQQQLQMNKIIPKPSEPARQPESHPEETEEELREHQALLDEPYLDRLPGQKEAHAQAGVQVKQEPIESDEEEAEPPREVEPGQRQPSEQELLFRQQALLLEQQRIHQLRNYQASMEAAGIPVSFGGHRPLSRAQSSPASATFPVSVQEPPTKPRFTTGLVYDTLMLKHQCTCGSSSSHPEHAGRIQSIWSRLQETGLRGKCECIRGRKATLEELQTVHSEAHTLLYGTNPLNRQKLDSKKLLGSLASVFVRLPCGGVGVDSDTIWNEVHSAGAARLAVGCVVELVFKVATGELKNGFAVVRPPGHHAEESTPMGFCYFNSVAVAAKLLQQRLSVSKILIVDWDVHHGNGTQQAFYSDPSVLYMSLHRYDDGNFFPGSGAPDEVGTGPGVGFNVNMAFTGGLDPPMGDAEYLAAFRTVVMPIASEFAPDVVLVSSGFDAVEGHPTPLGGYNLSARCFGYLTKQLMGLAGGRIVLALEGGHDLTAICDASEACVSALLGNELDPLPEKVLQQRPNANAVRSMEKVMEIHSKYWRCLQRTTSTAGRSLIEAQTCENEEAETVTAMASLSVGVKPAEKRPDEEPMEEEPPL
Histone deacetylase 3, sequence (O15379 whole entry): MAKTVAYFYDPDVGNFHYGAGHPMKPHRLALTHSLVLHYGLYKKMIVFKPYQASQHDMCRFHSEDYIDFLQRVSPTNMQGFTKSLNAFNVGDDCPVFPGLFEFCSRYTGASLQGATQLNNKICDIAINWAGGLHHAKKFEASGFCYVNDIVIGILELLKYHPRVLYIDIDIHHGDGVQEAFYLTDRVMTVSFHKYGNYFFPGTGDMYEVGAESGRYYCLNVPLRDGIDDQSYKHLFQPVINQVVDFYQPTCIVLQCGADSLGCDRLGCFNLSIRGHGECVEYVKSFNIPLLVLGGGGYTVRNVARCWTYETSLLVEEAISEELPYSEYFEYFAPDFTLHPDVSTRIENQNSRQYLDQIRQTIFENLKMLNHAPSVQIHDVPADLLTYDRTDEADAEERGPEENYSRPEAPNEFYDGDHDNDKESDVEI

Regarding `O=C(/C=C/C#Cc1cccc(NS(=O)(=O)c2ccccc2)c1)NO` [OXAMFLATIN], the negative-log Ki (pKi) at Histone deacetylase 1 is 8.89; on Histone deacetylase 3, 8.57; at Histone deacetylase 4, 5.69; in assay [1], 6.87.

In general, pKi refers to the Ki on a negative log10 scale, so that one unit is a factor of ten. Low readings indicate a large Ki, high ones a small Ki.
